Assay results: patent US6566508B2, “Fluorogenic compounds and uses therefor” (3M Innovative Properties Company, priority 2000, dated 2003)
Where two headings read alike, the source gives them in different places.

Assays:
[1] = Fluorescence excitation and emission spectra; details: for λem (nm) / λex (nm): anion of hydrolysis product
Excerpt: Fluorescence measurements were made using a SPEX Fluorolog™ Series spectrofluorimeter (SPEX Industries, Inc., Edison, N.J.).
By using an excitation source filter centered in this spectral window and an emission source filter centered between 480 nm and 600 nm, the formation of TU anion can be measured as a product of the enzymatic cleavage of β-TUGlc without interference from β-TUGlc fluorescence.

[2] = pKa determination from fluorescence emission as a function of pH
Protocol: Fifty microliters of this solution were then diluted to 4.00 mL in a series of 50 mM sodium phosphate buffer solutions, each having a different pH, corresponding to the traces of FIG. 7a, as shown in Table 1. The final concentration of TU was 3.08×10^−4 M.

[3] = tested on: B. stearothermophilus α-glucosidase; test: Enzymatic hydrolysis of α-TUGlc; type: biochemical; details: 60° C., growth media, 10 μL of 246 μM substrate, ex 450 nm, em 502 nm
Protocol: Commercially prepared B. stearothermophilus α-glucosidase (Sigma Chemical Company, St. Louis, Mo.) was used as 100 units per mL (1 unit produces 1 μmole of product per minute). 10 μL of this solution was added to […] of growth media to simulate the actual environment of the bacterial spores. This enzyme and media mixture was then incubated for 7 minutes at 60° C., at which time 10 μL of 246 μM α-TUGlc (prepared as described in Example 4) was added. The reaction was monitored on the SPEX Fluorolog™ spectrofluorimeter by exciting at 450 nm with emission at 502 nm. […] Variation in fluorescence may be due to variation in activity of the bacterial enzyme per mL of mixture. The assays of examples 7 and 8 confirmed the presence of the α-glucoside derivative.

[4] = tested on: B. stearothermophilus spores; test: Bacterial hydrolysis of α-TUGlc; type: cell-based, Bacillus stearothermophilus; details: spores 1×10^8 cells/mL diluted in growth media, 56° C., 10 μL of 246 μM substrate
Protocol: 100 μL of B. stearothermophilus spores (initial cone. 1×10^8 cells/mL) was added to 890 μL of growth media and the mixture was incubated at 56° C. for 7 minutes. […] This increase in fluorescence indicates enzymatic cleavage of the substrate. However, because the spores have both β- and α-glucosidase activity, the stereochemistry of the substrate can not be judged.

[5] = target: β-galactosidase from E. coli (Escherichia coli, UniProt P00722); details: pH 7.6, 37° C., excitation 450 nm, 1, 10 and 20 μM substrate
Protocol: β-Galactosidase activity was continuously assayed at pH 7.6 in a fluorometer using front face detection.
Samples were excited at 450 nm and emission was monitored at 502 nm.
Assay solutions were prepared as follows: a 100 mM sodium phosphate solution, pH 7.6, a 30 mM MgCl2 solution, a solution of β-TUGal (3.08×10^−2 M, Example 1) in N,N-dimethyl formamide (DMF), and a solution of β-galactosidase (1.0 units/μl) from E. coli (Grade VIII, Sigma Chemical Co., St. Louis, Mo.) reconstituted in 100 mM sodium phosphate, pH 7.3.
All reagents were kept on ice until their time of use. From them, two solutions were prepared: the substrate solution and the enzyme solution. The substrate solution was prepared in a sample vial by further dilution of the β-TUGal solution in DMF. The preparations gave final concentrations of 1, 10, and 20 μM β-TUGal. In a separate cuvette, the phosphate buffer was combined with 150 μL MgCl2 solution and the appropriate amount of reconstituted β-galactosidase to make the enzyme solution. This was then incubated for seven minutes at 37° C. Following incubation, the substrate solution was added and the fluorescence was measured by front face detection over a 10-minute period at 37° C.

[6] = tested on: E. coli P18 cells; test: Escherichia coli detection with β-TUGal in growth media (microwell fluorescence); type: cell-based
Protocol: E. coli is known to secrete extracellular galactosidase. In a selective growth media, E. coli can be detected based on development of this enzyme activity. Varying concentrations of 3-(2-thienyl) umbelliferyl-β-D-galactoside (β-TUGal) indicator were assayed against three known concentrations of E. coli P 18 cells: ca 10^3, 10^2, and 10 cells/mL. Viable cell counts were determined using Petrifilm (3M, St. Paul, Minn.). Adjusting for the dilutions used in the fluorescence detection experiments, cell counts were approximately 56, 5.6, and 0.56 cells per well. A fresh overnight culture of E. coli P18 was prepared and grown in tryptic soy broth (TSB, Sigma Chemical Co., St. Louis, Mo.). Ten μL of this stock culture was diluted into […] of Butterfields phosphate buffer (Hardy Diagnostics, Santa Maria, Calif.) to give a 10,000 fold dilution. Next, 10 mL of this new solution was diluted into 90 mL of phosphate buffer to give an approximate E. coli concentration of 10^3 cells/mL. Two more dilutions in this same manner yielded cultures of 10^2 and 10 cells/mL. […] Each of the three lowest dilutions of the E. coli culture were counted on Petrifilm by plating 1 mL of each and growing overnight at 37° C.

[7] = tested on: β-glucosidase; test: LED-based monitoring of enzymatic cleavage of β-TUGlc; type: biochemical
Protocol: A 10× objective was used for large detection zones (e.g., solution cuvettes, microwell arrays) and a 40× objective was used for small samples (e.g., 50 μm wide channels in microfluidic chips). […] (Model #04 OAS 016; 0.65 N.A.).
Two stock solutions of β-glucosidase (Sigma Chemical Co., St. Louis, Mo.) were prepared in pH 7.6 phosphate buffered saline (PBS): (a) 1 enzyme unit/20 μL and (b) 1 enzyme unit/400 μL, where one enzyme unit liberates 1 μMole of product per minute when salicin is the substrate. Required amounts of the stock solutions were diluted with 980 μL of PBS to create samples of 0.5, 0.125, 0.0625, 0.025, and 0.0125 units per mL, represented in FIG. 17a by traces 1 through 5, respectively. These samples were incubated for 7 minutes at 37° C., then treated with 5 μL of 24.6 mM β-TUGlc in DMF (Example 1) such that the initial concentration of β-TUGlc was 123 μM.
Fluorescence resulting from cleavage of the substrate was monitored in a thermostatted cuvette at 37 ° C. using the testbed described in Example 9 with a PMT gain setting of 822 Amperes/Watt. Fluorescent response for each enzyme concentration was monitored for three minutes. FIG. 17b is a plot of the initial rates of reaction obtained from the data in FIG. 17a.

[8] = tested on: B. stearothermophilus spores; test: Bacillus stearothermophilus detection with β-TUGlc; type: cell-based
Protocol: B. stearothermophilus spores (commercially available as ATCC 7953 or ATCC 8005 from American Type Culture Collection, Rockville, Md.) were diluted in growth media to a concentration of 1.3×10^8 cells per mL. Dilutions to 10^7 […] and 10^6 cells/mL were prepared using 50 mM sodium phosphate, pH 7.6. Aliquots of these solutions were incubated with β-TUGlc (2×10^−6 M) at 56° C. in a fluorimeter and fluorescence was monitored with excitation at 450 nm and emission at 502 nm. […] In a similar manner, spore solutions that had been steam-sterilized for 20 minutes at 121° C. were mixed with the β-TUGlc. […] The growth medium for this Example was prepared by dissolution of trypticase peptone (5 g), phytone peptone (12 g) and L-alanine (17 mg) in 1 liter of water.

[9] = tested on: Bacillus subtilis spores; test: LED-based monitoring of bacterial cleavage of β-TUGlc; type: cell-based
Excerpt: LED 110, having a maximum emission at 475 nm (Model HP HLMP CB15, Hewlett Packard Instruments, Palo Alto, Calif.), was driven in a pulsed mode with a 10% duty cycle by computer-controlled pulse generator 132 (Hewlett Packard Instruments). Light from LED 110 was introduced into filter block 130 (Model I3, Leica Microsystems, Inc., Deerfield, Ill.), comprising excitation filter 112 (model BP, 450-490 nm), dichroic mirror 114 (model RKP, reflection short pass at 510 nm), and emission filter 120 (model LP, 515 nm) and focused on an illumination region of sample 118 by objective lens 116. The illumination region was designed to accommodate a solution sample, a microfluidic chip, or other sample that might contain β-TUGlc to be enzymatically cleaved. A 10× objective was used for large detection zones (e.g., solution cuvettes, microwell arrays) and a 40× objective was used for small samples (e.g., 50 μm wide channels in microfluidic chips). Both objective lenses were obtained from Melles Griot, Irvine, Calif. […] Return fluorescence was passed through objective lens 116, reflected from dichroic mirror 114 through emission filter 120 and iris diaphragm 122, and detected with photomultiplier tube 124 (PMT Model H5783, Hamamatsu Corp., Bridgewater, N.J.) having an adjustable gain between 0 and 70,000 Amperes/Watt. PMT module 124 was powered by a 15 volt power supply (not shown). […]

[10] = Autoclave stability of β-TUGlc; type: physicochemical; details: 0.1 g/mL in B. subtilis growth media and pH 7.6 PBS; 20 minutes at 121° C., then 15 minutes at 132° C.
Protocol: Solutions of 0.1 g/mL of β-TUGlc (Example 1) in B. subtilis growth media and in pH 7.6 phosphate buffered saline (PBS) were heated in an autoclave for 20 minutes at 121° C. Fluorescence spectrum on excitation at 362 nm was obtained. The sample was heated a second time in an autoclave for 15 minutes at 132° C., and the fluorescence spectrum was obtained. […] Therefore, β-TUGlc was sufficiently robust to be used in a sterilization indicator format such as a Attest™ Rapid Readout Biological Indicator (3M Company, St. Paul, Minn.), wherein the fluorogenic enzyme substrate and the biological spore are both exposed to the conditions within the steam sterilizer.

[11] = tested on: β-glucosidase; test: Hand-held LED probe, cleavage of β-TUGlc; type: biochemical; details: 0.125 units β-glucosidase, pH 7.6 PBS, GaN LED
Protocol: A solution of 100 μL of 1.0 mM β-TUGlc (Example 1) in DMF was combined with 840 μL of 7.6 pH PBS in a 1 mL cuvette, and the volume was adjusted to 990 μL by the addition of […] of 30 mM aq. MgCl. The mixture was irradiated using a GaN LED (λmax=480 nm, Nichia Chemical Industries, Ltd., Anan, J P) mounted in a compact, hand-held probe, and 10 μL of β-glucosidase (0.125 units in pH 7.6 PBS) was added. Within ten seconds, a strong fluorescent signal could be seen in the cuvette.

[12] = 5 μM solution in 50 mM PBS at pH 10.0
[13] = 5 μM solution in phosphate buffered saline at pH 7.6

Chain of β-galactosidase from E. coli (P00722 2-1024): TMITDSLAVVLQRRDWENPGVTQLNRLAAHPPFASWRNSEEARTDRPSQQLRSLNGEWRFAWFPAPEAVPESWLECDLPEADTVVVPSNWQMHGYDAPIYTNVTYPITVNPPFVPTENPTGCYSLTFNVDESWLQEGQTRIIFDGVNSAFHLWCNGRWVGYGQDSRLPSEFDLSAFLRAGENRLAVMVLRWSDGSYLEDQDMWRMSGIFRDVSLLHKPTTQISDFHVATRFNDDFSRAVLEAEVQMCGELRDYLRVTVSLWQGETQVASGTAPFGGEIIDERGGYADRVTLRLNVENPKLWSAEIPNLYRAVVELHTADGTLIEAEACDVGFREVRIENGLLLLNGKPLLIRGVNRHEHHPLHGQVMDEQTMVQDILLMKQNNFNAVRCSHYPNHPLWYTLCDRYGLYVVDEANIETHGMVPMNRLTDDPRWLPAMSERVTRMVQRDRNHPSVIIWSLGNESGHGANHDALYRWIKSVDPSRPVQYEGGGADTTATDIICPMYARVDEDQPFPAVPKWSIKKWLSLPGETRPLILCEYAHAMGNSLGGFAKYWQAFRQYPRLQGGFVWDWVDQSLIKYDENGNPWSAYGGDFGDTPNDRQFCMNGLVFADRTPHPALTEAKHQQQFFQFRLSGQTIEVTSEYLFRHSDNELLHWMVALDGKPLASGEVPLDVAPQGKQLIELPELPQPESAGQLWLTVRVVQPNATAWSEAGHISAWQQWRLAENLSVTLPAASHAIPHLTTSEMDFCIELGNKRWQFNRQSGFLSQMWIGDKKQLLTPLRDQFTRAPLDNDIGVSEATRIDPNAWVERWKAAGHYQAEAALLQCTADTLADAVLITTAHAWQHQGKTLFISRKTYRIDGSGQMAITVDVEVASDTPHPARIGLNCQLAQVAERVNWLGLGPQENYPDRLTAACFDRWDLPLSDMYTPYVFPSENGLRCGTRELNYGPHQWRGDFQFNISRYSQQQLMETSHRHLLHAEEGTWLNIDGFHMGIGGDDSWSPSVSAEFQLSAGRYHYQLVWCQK

O=c1oc2cc(O)ccc2cc1-c1nc2ccccc2[nH]1 [3-(2-benzoimidazolyl) umbelliferyl anion]
λem (nm) [1]: 477 nm
λex (nm) [1]: 420 nm
pKa [2]: 7.01

O=c1oc2cc(O)ccc2cc1-c1nc2ccccc2s1 [3-(2-benzothiazolyl) umbelliferyl anion]
λem (nm) [1]: 488 nm
λex (nm) [1]: 447 nm
pKa [2]: 6.79

O=c1oc2cc(O)ccc2cc1-c1nc2ccccc2o1 [3-(2-benzoxazolyl) umbelliferyl anion]
λem (nm) [1]: 471 nm
λex (nm) [1]: 425 nm
pKa [2]: 6.56

O=c1oc2cc(O)ccc2cc1-c1cccs1 [3-(2-thienyl) umbelliferyl anion, 3-(2-thienyl) umbelliferone]
emission maximum [1, 12]: ~502 nm
excitation maximum [1, 12]: ~410 nm
λem (nm) [1]: 502 nm
λex (nm) [1]: 410 nm
pKa ([2]; umbelliferone hydrolysis product): 7.57±0.03

O=c1oc2cc(OC3OC(CO)C(O)C(O)C3O)ccc2cc1-c1cccs1 (stereo not drawn) [α-TUGlc]
time at which Vmax appears [3]: about 2 minutes
fluorescence at 502 nm after substrate addition [4]: Fluorescence increased rapidly in the first 20 minutes

O=c1oc2cc(O[C@@H]3O[C@H](CO)[C@H](O)[C@H](O)[C@H]3O)ccc2cc1-c1cccs1 [β-TUGal, 3-(2-thienyl)-umbelliferyl-7-β-D-galactoside]
fluorescence at 502 nm on addition of β-galactosidase [5]: rapid increase in fluorescence
positive results ([6]; 0.56 cell concentration): 3 of the 10 concentrations showed positive results
fastest time to positive result ([6]; 56 cells per well, 62 μM indicator): 6.5 h

O=c1oc2cc(O[C@@H]3O[C@H](CO)[C@@H](O)[C@H](O)[C@H]3O)ccc2cc1-c1cccs1 [β-TUGlc, 3-(2-thienyl)-umbelliferyl-7-β-D-glucoside]
emission maximum [1, 13]: ~460 nm
excitation maximum [1, 13]: ~380 nm
time to significant, detectable fluorescent signal ([7]; 0.5 enzyme units, 123 μM substrate, 37° C., pH 7.6 PBS): less than 5 seconds
fluorescent signal with steam-sterilized enzyme ([7]; enzyme solutions steam-sterilized at 121° C. for 20 minutes): no time-dependent changes in the fluorescent signal
time until fluorescence changes were evident ([8]; 10^7 and 10^6 cells/mL, 2×10^−6 M substrate, 56° C., ex 450 nm, em 502 nm): less than 10 minutes
cleavage by steam-sterilized spore solutions ([8]; spores steam-sterilized 20 minutes at 121° C.): no enzymatic cleavage reaction
time to presumptive identification of B. subtilis after mixing ([9]; 10^8 spores/mL, 37° C., PMT gain 88 Amperes/Watt): less than five
fluorescent signal with steam-sterilized control ([9]; steam-sterilized at 121° C. for 20 minutes): no time-dependent changes in the fluorescent signal
fraction hydrolyzed during each autoclave cycle [10]: approximately 10%
time to strong fluorescent signal [11]: ten
